Patent US20110262359A1, “COMPOSITIONS COMPRISING ENZYME-CLEAVABLE PRODRUGS OF ACTIVE AGENTS AND INHIBITORS THEREOF” (priority 2010, published 2011)

Tests used:
[1] = Oral administration of Compound PC-3 and Compound 101 trypsin inhibitor to rats; type: in vivo
[2] = Oral administration of Compound PC-4 and Compound 101 trypsin inhibitor to rats; type: in vivo
[3] = Oral administration of Compound PC-1 and BBSI inhibitor to rats; type: in vivo; settings: PC-1 20 mg/kg
[4] = Oral administration of Compound PC-1 and SBTI in the presence of ovalbumin to rats (hydromorphone in plasma); type: in vivo; settings: for Maximum concentration (Cmax) of hydromorphone in rat plasma: PC-1 20 mg/kg
[5] = Oral administration of Compound PC-1 and SBTI trypsin inhibitor to rats (hydromorphone in blood); settings: for Maximum concentration (Cmax) of hydromorphone in rat blood: PC-1 20 mg/kg
[6] = Oral administration of Compound PC-2 and SBTI trypsin inhibitor to rats; type: in vivo; settings: for Cmax of hydromorphone in rat plasma: PC-2 20 mg/kg
[7] = Oral administration of Compound PC-3 and SBTI trypsin inhibitor to rats; type: in vivo; settings: for Cmax of hydromorphone in rat plasma / Tmax of hydromorphone in rat plasma: PC-3 20 mg/kg
[8] = biological target: T1, trypsin from bovine pancreas (Bos taurus, UniProt P00760); assay: In vitro trypsin conversion of prodrugs to hydromorphone and inhibition by trypsin inhibitor
T1 sequence (P00760 24-246): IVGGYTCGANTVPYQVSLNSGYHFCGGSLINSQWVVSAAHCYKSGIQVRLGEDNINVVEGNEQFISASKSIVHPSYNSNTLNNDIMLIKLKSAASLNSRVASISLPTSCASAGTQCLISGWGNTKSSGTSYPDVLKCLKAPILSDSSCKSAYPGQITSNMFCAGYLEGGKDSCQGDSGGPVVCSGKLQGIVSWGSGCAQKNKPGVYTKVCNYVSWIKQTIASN

[9] = Oral administration of Compound PC-4 and SBTI trypsin inhibitor to rats; type: in vivo; settings: for Cmax of HM in rat plasma / Tmax of HM in rat plasma: PC-4 20 mg/kg
trypsin = biological target: T2, trypsin (Bos taurus, UniProt P00760); assay: In vitro IC50 of trypsin inhibitors, modified trypsin assay; type: biochemical; settings: trypsin inhibition
T2 sequence (P00760 24-246): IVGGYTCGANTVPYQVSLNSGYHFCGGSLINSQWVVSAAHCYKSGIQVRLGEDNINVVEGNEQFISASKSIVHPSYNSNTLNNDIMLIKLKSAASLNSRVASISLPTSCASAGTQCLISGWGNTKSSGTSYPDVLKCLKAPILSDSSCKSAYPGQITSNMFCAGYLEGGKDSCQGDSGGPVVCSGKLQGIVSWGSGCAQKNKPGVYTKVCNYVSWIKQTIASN

[10] = PC-3 20 mg/kg, Compound 101 10 mg/kg
[11] = PC-4 20 mg/kg, Compound 101 10 mg/kg

In the case of `CCOC(=O)N1CCN(C(=O)[C@H](CCCNC(=N)N)NS(=O)(=O)c2ccc3ccccc3c2)CC1` [Compound 101, (S)-ethyl 4-(5-guanidino-2-(naphthalene-2-sulfonamido)pentanoyl)piperazine-1-carboxylate], the “effect of Compound 101 on release of hydromorphone from Compound PC-3” value ([1]; rat PO, PC-3 20 mg/kg with Compound 101 10 mg/kg) is reported as “attenuates Compound PC-3's ability to release hydromorphone, both with respect to suppressing Cmax and delaying Tmax” and the “effect of Compound 101 on release of hydromorphone from Compound PC-4” value ([2]; rat PO, PC-4 20 mg/kg with Compound 101 10 mg/kg) is reported as “attenuates Compound PC-4's ability to release hydromorphone, both with respect to suppressing Cmax and delaying Tmax”.

With `CC(=O)NC(CCCNC(=N)N)C(=O)NCCN(C)C(=O)Oc1ccc2c3c1OC1C(=O)CCC4C(C2)N(C)CCC314` (stereo not shown) [Compound PC-1, hydromorphone 3-(N-methyl-N-(2-N′-acetylarginylamino)) ethylcarbamate] the “Maximum concentration (Cmax) of hydromorphone in rat blood” value (“Maximum concentration … in rat blood” below) ([3]; BBSI 0 mg/kg, n = 4) was 16.5 ± 5.3 ng/mL, the “Maximum concentration … in rat blood” value ([3]; BBSI 100 mg/kg, n = 3 (3 of the 4 rats)) was 10.6 ± 5.9 ng/mL and the “Maximum concentration … in rat blood” value ([3]; BBSI 100 mg/kg, n = 4) was 18.7 ± 17.0 ng/mL. The “Cmax of hydromorphone of the rat not included in n = 3 analysis” value ([3]; BBSI 100 mg/kg, one rat) was 43 ng/mL, the “range of Cmax of hydromorphone of the other rats” value ([3]; rat PO, BBSI 100 mg/kg, the 3 rats of the n = 3 analysis) was 6.8 to 17 ng/mL and the “Maximum concentration (Cmax) of hydromorphone in rat plasma” value (“Maximum concentration … in rat plasma” for short) ([4]; OVA 0 mg/kg, SBTI 0 mg/kg) was 13.3 ± 3.7 ng/mL. The “Maximum concentration … in rat plasma” value ([4]; OVA 20 mg/kg, SBTI 0 mg/kg) was 11.0 ± 5.4 ng/mL, the “Maximum concentration … in rat plasma” value ([4]; OVA 100 mg/kg, SBTI 0 mg/kg) was 9.7 ± 3.1 ng/mL and the “Maximum concentration … in rat plasma” value ([4]; OVA 500 mg/kg, SBTI 0 mg/kg) was 11.6 ± 2.5 ng/mL. The “Maximum concentration … in rat plasma” value ([4]; OVA 500 mg/kg, SBTI 500 mg/kg) was 1.9 ± 0.9 ng/mL, the “Maximum concentration … in rat plasma” value ([4]; OVA 1000 mg/kg, SBTI 0 mg/kg) was 10.3 ± 3.5 ng/mL and the “plasma Tmax of hydromorphone” value ([4]; rat PO, PC-1 20 mg/kg alone) was 2.3 h. For the same molecule, the “plasma Tmax of hydromorphone” value ([4]; rat PO, PC-1 20 mg/kg with 500 mg/kg OVA and 500 mg/kg SBTI) was 8.0 h, the “Maximum concentration … in rat blood” value ([5]; SBTI 0 mg/kg) was 16.5 ± 5.3 ng/mL and the “Maximum concentration … in rat blood” value ([5]; SBTI 10 mg/kg) was 8.9 ± 1.8 ng/mL. The “Maximum concentration … in rat blood” value ([5]; SBTI 100 mg/kg) was 6.0 ± 4.0 ng/mL, the “Maximum concentration … in rat blood” value ([5]; SBTI 500 mg/kg, lower limit of quantitation 5 ng/mL) was less than 5 ng/mL and the “Maximum concentration … in rat blood” value ([5]; SBTI 1000 mg/kg, lower limit of quantitation 5 ng/mL) was less than 5 ng/mL.

In the case of `CN(CCNC(=O)[C@@H](N)CCCNC(=N)N)C(=O)Oc1ccc2c3c1OC1C(=O)CCC4C(C2)N(C)CCC314` (stereo partly drawn) [Compound PC-2, [2-((S)-2-amino-5-guanidino-pentanoylamino)-ethyl]-methyl-carbamic acid hydromorphyl ester], the “Cmax of hydromorphone in rat plasma” value ([6]; SBTI 0 mg/kg) is reported as 14.2 ± 2.6 ng/mL and the “Cmax of hydromorphone in rat plasma” value ([6]; SBTI 500 mg/kg) is reported as 7.3 ± 3.5 ng/mL.

For `CC(=O)N[C@@H](CCCCN)C(=O)NCCN(C)C(=O)Oc1ccc2c3c1OC1C(=O)CCC4C(C2)N(C)CCC314` (stereo partly drawn) [Compound PC-3, (S)-2-Acetylamino-6-amino-hexanoic acid (2-methylamino-ethyl)-amide hydromorphone ester], the “Cmax of hydromorphone in rat plasma” value ([7]; SBTI 500 mg/kg) was 2.3 ± 1.7 ng/mL, the “Tmax of hydromorphone in rat plasma” value ([7]; SBTI 500 mg/kg) was 7.3 h and the “Cmax of hydromorphone in rat plasma” value ([7]; no inhibitor) was 9.0 ± 3.1 ng/mL. The “Tmax of hydromorphone in rat plasma” value ([7]; no inhibitor) was 2.3 h, the “Cmax of HM in rat plasma” value [1, 10] was 3.8 ± 2.9 ng/mL and the “Tmax of HM in rat plasma” value [1, 10] was 3.5 h.

For `CCN(CCNC(=O)[C@H](CCCNC(=N)N)NC(C)=O)C(=O)Oc1ccc2c3c1OC1C(=O)CCC4C(C2)N(C)CCC314` (stereo partly shown) [Compound PC-4], the “Rate of HM formation, umols/h/umol trypsin” value ([8]; no trypsin inhibitor, (n = 1)) was 322 umols/h/umol trypsin, the “Rate of HM formation, umols/h/umol trypsin Average ± sd” value ([8]; with trypsin inhibitor 3,089 uM Compound 109) was 3.27 ± 1.87 umols/h/umol trypsin and the “Cmax of HM in rat plasma” value ([9]; SBTI 500 mg/kg) was 7.5 ± 2.1 ng/mL. For the same molecule, the “Tmax of HM in rat plasma” value ([9]; SBTI 500 mg/kg) was 6.5 h, the “Cmax of HM in rat plasma” value ([9]; no inhibitor, 7 rats) was 7.7 ± 2.3 ng/mL and the “Tmax of HM in rat plasma” value ([9]; no inhibitor, 7 rats) was 2.3 h. The “Cmax of HM in rat plasma” value [2, 11] was 4.8 ± 1.4 ng/mL and the “Tmax of HM in rat plasma” value [2, 11] was 6.0 h.

B1: SBTI: trypsin inhibitor from Glycine max (soybean) (Catalog No. 93620, ˜10,000 units per mg, Sigma-Aldrich) (protein, UniProt P01070 25-205, looked up)
Trypsin inhibitor A: DFVLDNEGNPLENGGTYYILSDITAFGGIRAAPTGNERCPLTVVQSRNELDKGIGTIISSPYRIRFIAEGHPLSLKFDSFAVIMLCVGIPTEWSVVEDLPEGPAVKIGENKDAMDGWFRLERVSDDEFNNYKLVFCPQQAEDDKCGDIGISIDHDDGTRRLVVSKNKPLVVQFQKLDKESL
With B1 the “effect of SBTI on release of hydromorphone from Compound PC-3” value ([7]; rat PO, PC-3 20 mg/kg with SBTI 500 mg/kg) was “attenuates Compound PC-3's ability to release hydromorphone, both with respect to suppressing Cmax and delaying Tmax”, the IC50 (trypsin; Table 7) was 270 nM and the IC50 (trypsin; Table 20) was 270 nM. The “effect of SBTI on release of hydromorphone from Compound PC-2” value ([6]; rat PO, PC-2 20 mg/kg with SBTI 500 mg/kg) was “attenuates Compound PC-2's ability to release hydromorphone, both with respect to suppressing Cmax and delaying Tmax”, the “effect of SBTI on release of hydromorphone from Compound PC-4” value ([9]; rat PO, PC-4 20 mg/kg with SBTI 500 mg/kg) was “attenuates Compound PC-4's ability to release hydromorphone, at least with respect to delaying Tmax” and the “effect of SBTI on release of hydromorphone from Compound PC-1” value ([5]; rat PO, PC-1 20 mg/kg with SBTI 10 to 1000 mg/kg) was “attenuates Compound PC-1's ability to release hydromorphone in a dose-dependent manner”.

B2: ovalbumin: Albumin from chicken egg white (Catalog No. A7641, Sigma-Aldrich), used as a non-trypsin inhibitor protein control (protein, UniProt P01012 2-386, looked up)
Ovalbumin: GSIGAASMEFCFDVFKELKVHHANENIFYCPIAIMSALAMVYLGAKDSTRTQINKVVRFDKLPGFGDSIEAQCGTSVNVHSSLRDILNQITKPNDVYSFSLASRLYAEERYPILPEYLQCVKELYRGGLEPINFQTAADQARELINSWVESQTNGIIRNVLQPSSVDSQTAMVLVNAIVFKGLWEKAFKDEDTQAMPFRVTEQESKPVQMMYQIGLFRVASMASEKMKILELPFASGTMSMLVLLPDEVSGLEQLESIINFEKLTEWTSSNVMEERKIKVYLPRMKMEEKYNLTSVLMAMGITDVFSSSANLSGISSAESLKISQAVHAAHAEINEAGREVVGSAEAGVDAASVSEEFRADHPFLFCIKHIATNAVLFFGRCVSP
In the case of B2, the “effect of ovalbumin on release of hydromorphone from Compound PC-1” value ([4]; rat PO, PC-1 20 mg/kg with OVA 20 to 1000 mg/kg) is reported as “does not significantly affect Compound PC-1's ability to release hydromorphone”.
